The subject of one series is VSV. The series is classed as cell-based, vesicular stomatitis virus.
Another series deals with HSV-1. Format: cell-based, Herpes simplex virus Type I.
Another series concerns Visna virus (VIV). The series is classed as cell-based.
In the next series the test system is P388 murine lymphoma. The series can be described thus: In vivo antitumor activity, P388. Also noted: species or system mice. The settings on record: for T/C (treated/control): significant >125%. The procedure: (§1) Compound 106 was prepared semisynthetically for in vivo antitumor testing in mice.
(§2) ^b Schedule 1-9 days i. p.
^d P388 murine lymphoma. Median survival of control mice, 10.0 days.

A further series has as its system B16 melanoma. The series can be described thus: In vivo antitumor activity, B16. Also noted: species or system mice. The following applies: for T/C (treated/control): significant >125%. The procedure: as §1, §2
^e B16 melanoma. Median survival of control mice, 17.0 days.

Another series relates to Lewis lung carcinoma. The series can be described thus: In vivo antitumor activity, Lewis lung. Also noted: species or system mice. The procedure: as §1, §2
^f Lewis lung carcinoma, median tumor volume of control mice 1372

The test system of series [1] is L1210 murine leukemia cells. The following applies: Table 9.
The conditions of series [2]: earlier work of Gloer; cited from earlier work.
Another series concerns L1210. The series can be described thus: L1210 cytotoxicity, inhibition at fixed doses (Table 10). Format: cell-based, murine. The settings on record: tested 4/18/1991.
Series [3] deals with Nb2 cells, rat T-cell node lymphoma. The series can be described thus: Competitive binding with [3H]didemnin B to Nb2 cells. The settings on record: 3 h at 37° C. The procedure:
The immunosuppressive assay was performed by measuring competitive binding of tested compounds with [^3 H]didemnin B to Nb2 cells, rat T-cell node lymphoma. See, Russell, D. H., et al., J. Immunology, 1987, 138, 276-284.
^a Competing didemnins incubated with approximately 25 ng of [^3

For series [4], the system named is DNA synthesis in Nb2 node lymphoma cells. The series can be described thus: Inhibition of ongoing DNA synthesis in prolactin-stimulated Nb2 cells. The series is classed as cell-based, rat. The following applies: Nb2 cells stimulated with prolactin for 24 h. The procedure:
(§3) Also inhibitions of protein and DNA synthesis of several compounds were measured using Nb2 node lymphoma cells which were stimulated by a treatment of cells with prolactin. (ibid.)
(§4) ^a Nb2 cells were stimulated with prolactin for 24 h, then exposed to
(§5) ^b 50% Inhibitory concentration, calculated with linear regression

Series [5] concerns Protein synthesis in Nb2 node lymphoma cells. The series can be described thus: Inhibition of ongoing protein synthesis in prolactin-stimulated Nb2 cells. The series is classed as cell-based, rat. The following applies: Nb2 cells stimulated with prolactin for 24 h. The procedure:
as §3, §4, §5

The conditions of series [6]: earlier work, Rinehart et al. 1988; cited from earlier work.

The structures appear in SMILES notation. In brackets after ≈: the same amount, converted by molar mass. Entries after “also recorded” stand apart in the source; their conditions may differ. Like-named read-outs stand apart in the source and are kept apart here. Numbered stars: 1 amine (or outer) side, 2 acyl side, 3 side chain; on linkers, the order of the positions; unused ones are H or OH. Bridge positions count the residues as written; N and C are the ends. Square brackets hold non-standard residues; d marks the D form. Peptide text beside a SMILES is read from it. * marks the point of attachment. X14 = CC[C@H](C)[C@@H](N[*:1])[C@@H](O)CC(=O)O[C@@H](C(C)C)[C@@H](O)[C@H](C)C(=O)[*:2]; X1 = CC[C@H](C)[C@@H](N[*:1])[C@@H](O)CC(=O)O[C@H](C(=O)[C@H](C)C(=O)[*:2])C(C)C; NMeY = CN[C@@H](Cc1ccc(O)cc1)C(=O)O; dNMeL = CN[C@H](CC(C)C)C(=O)O; Pyruvoyl = CC(=O)C(=O)*

As to `CC[C@H](C)[C@H]1NC(=O)[C@@H](NC(=O)[C@@H](CC(C)C)N(C)C(=O)[C@@H]2CCCN2C(=O)C(C)=O)[C@@H](C)OC(=O)[C@H](Cc2ccc(OC)cc2)N(C)C(=O)[C@@H]2CCCN2C(=O)[C@H](CC(C)C)NC(=O)[C@@H](C)C(=O)[C@H](C(C)C)OC(=O)C[C@@H]1O` [[Pyruvyl^9]Didemnin B (106), Dehydrodidemnin B] (Pyruvoyl-P[dNMeL]T[X1]LP[NMeY](Me); ester 3-C), in the series on VSV, the “antiviral activity against VSV” value was “high order”. In addition, the HSV-1 result in the series on HSV-1 is on record as “+ +”. The “antiviral activity against HSV-1” value with HSV-1 is listed as “several times more active than DB; also recorded: high order”. Besides, in the series on Visna virus (VIV), the “VIV Protection” value is -92. Further, the “activity against VIV” value with Visna virus (VIV) was “completely inactive”. Moreover, the “Alive (day 23)” value in the series on P388 murine lymphoma (P388, 80 μg/kg/day) came to 0; with P388 murine lymphoma (P388, 160 μg/kg/day) it was 0; in the series on P388 murine lymphoma (P388, 320 μg/kg/day), 0. Also, the “Median Survival” value was 19.5 days in the series on P388 murine lymphoma (P388, 80 μg/kg/day); 21.0 days in the series on P388 murine lymphoma (P388, 160 μg/kg/day); 6.0 days in the series with P388 murine lymphoma (P388, 320 μg/kg/day); 30 days in the series with B16 melanoma (B16, 40 μg/kg/day); 32 days with B16 melanoma (B16, 80 μg/kg/day); 37 days with B16 melanoma (B16, 160 μg/kg/day). Besides, the Body wt. chenge. with P388 murine lymphoma (P388, 80 μg/kg/day i. p. days 1-9) is given as -1.4 g; with P388 murine lymphoma (P388, 160 μg/kg/day i. p. days 1-9) it was -3.2 g; in the series with P388 murine lymphoma (P388, 320 μg/kg/day i. p. days 1-9) it was -3.3 g; in the series on B16 melanoma (B16, 40 μg/kg/day i. p. days 1-9), 0.1 g; in the series on B16 melanoma (B16, 80 μg/kg/day i. p. days 1-9), -0.5 g; in the series with B16 melanoma (B16, 160 μg/kg/day i. p. days 1-9) it was -1.3 g. Besides, the “T/C (treated/control)” value is 195% with P388 murine lymphoma (P388, 80 μg/kg/day); 210% in the series on P388 murine lymphoma (P388, 160 μg/kg/day); 60% with P388 murine lymphoma (P388, 320 μg/kg/day); 178% in the series on B16 melanoma (B16, 40 μg/kg/day); 188% in the series on B16 melanoma (B16, 80 μg/kg/day); 218% with B16 melanoma (B16, 160 μg/kg/day). Moreover, the “Alive (day 24)” value with B16 melanoma (B16, 40 μg/kg/day) is recorded as 0; in the series on B16 melanoma (B16, 80 μg/kg/day) it was 0; in the series with B16 melanoma (B16, 160 μg/kg/day) it was 0. For the same molecule, the “Median Tumor Vol.” value with Lewis lung carcinoma (40 μg/kg/day) is 473 mm^3; with Lewis lung carcinoma (80 μg/kg/day) it was 163 mm^3; with Lewis lung carcinoma (160 μg/kg/day) it was 0 mm^3. Further, the entries for the “N. P. (Day 14), number of nonpalpable tumors” value with Lewis lung carcinoma (40 μg/kg/day), in the series with Lewis lung carcinoma (80 μg/kg/day) and with Lewis lung carcinoma (160 μg/kg/day) were 0, 2 and 5, respectively. The “Body Wt. Chenge.” value in the series with Lewis lung carcinoma (40 μg/kg/day i. p. days 1-9) is on record as -2.6 g; in the series on Lewis lung carcinoma (160 μg/kg/day i. p. days 1-9), -3.7 g. The IC50 in the series with L1210 cells was found to be 0.2 ng/mL (≈ 0.18 nM). Besides, in the series with L1210 cells, the “cytotoxic activity against L1210” value is on record as “several times more active than DB”. The “Cytotoxicity L1210 IC50” value in [1] is 0.2 ng/mL.
With `CC[C@H](C)[C@H]1NC(=O)[C@@H](NC(=O)[C@@H](CC(C)C)NC)[C@@H](C)OC(=O)[C@H](Cc2ccc(OC)cc2)N(C)C(=O)[C@@H]2CCCN2C(=O)[C@H](CC(C)C)NC(=O)[C@@H](C)[C@H](O)[C@H](C(C)C)OC(=O)C[C@@H]1O` [[Dihydro(2S,3S,4S)Hip^2]didemnin A, reference compound] (H-[dNMeL]T[X14]LP[NMeY](Me); ester 2-C), the “cytotoxicity compared with Compound 1” value in series [2] is given as “weaker cytotoxicity than Compound 1”.
In the case of `CC[C@H](C)[C@@H](NC(=O)[C@@H](NC(=O)[C@@H](CC(C)C)NC)[C@@H](C)O)[C@@H](O)CC(=O)O[C@H](C(=O)[C@H](C)C(=O)N[C@@H](CC(C)C)C(=O)N1CCC[C@H]1C(=O)N(C)[C@@H](Cc1ccc(OC)cc1)C(=O)O)C(C)C` [Acyclodidemnin A (16), Acyclodidemnin A] (H-[dNMeL]T[X1]LP[NMeY](Me)-OH), the “Inhibition (%)” value in the series on L1210 (dose 25 ng/mL) is given as 25%; in the series with L1210 (dose 250 ng/mL) it was 99%. Also, the “Inhibition of [3H]didemnin B binding (%)” value in series [3] (0.001 μg/mL) was 0%; in series [3] (0.01 μg/mL), 7%; in series [3] (0.1 μg/mL) it was 6%; in [3] (1 μg/mL) it was 8%. In addition, in [4], the “IC50 DNA” value is “inactive (1 g)”. Also, in [5], the “IC50 Protein” value was “inactive (1 g)”. Besides, the CV-1 in the series with CV-1 monkey kidney cells amounted to 0. The “Cytotoxicity L1210 IC50” value in series [1] is 30 ng/mL.
Consider `CC[C@H](C)[C@@H]1NC(=O)[C@@H](NC(=O)[C@H](CC(C)C)N(C)C(C)=O)[C@H](C)OC(=O)[C@H](Cc2ccc(OC)cc2)N(C)C(=O)[C@@H]2CCCN2C(=O)[C@H](CC(C)C)NC(=O)[C@@H](C)C(=O)[C@H](C(C)C)OC(=O)C[C@@H]1OC(C)=O` [Diacetyldidemnin A (32), N,O-Diacetyldidemnin A], for which, in the series with Visna virus (VIV) (Table 9, 0.1 μg/mL), the “VIV Protection” value is reported as less than 0%. For the same molecule, the “Cytotoxicity L1210 IC50” value in series [1] is listed as 15 ng/mL. Besides, the “cytotoxicity compared with Compound 1” value in [2] is “weaker cytotoxicity than Compound 1”. In addition, in series [6], the “antiviral activity (in vitro)” value is “improvement of the antiviral activity”.

By IC50 is commonly meant the concentration that inhibits the measured activity by half.

The values are drawn from patent publication US5294603A, “Pharmaceutical compositions containing didemnins” (The Board of Trustees of The University of Illinois, priority 1992, dated 1994).
